{"source": "patent US12364667B2", "about": "“Anti-tumor platinum-based drug mineralized protein nanoparticle, preparation method therefor and use thereof” (SOOCHOW UNIVERSITY, priority 2019, dated 2025)", "key": {"[1]": {"assay": "Serum ALT, AST, ALP and urea nitrogen after treatment", "type": "in vivo, Balb/c mice", "conditions": "7 days after complete injection; tail vein, once every 5 days, 5 administrations", "description": "12. […] Each mouse was administered via the tail vein (1 mg/mL, once every 5 days). After a total of 5 administrations for 25 days, each mouse was taken by eyeball blood sampling at 7, 14, 21, and 28 days after administration. A 0.5 mL blood sample from a mouse was placed overnight at 4° C. and centrifuged at 1000 rpm for 5 min. The upper clarified serum 200 μL was taken out to measure the alanine aminotransferase (ALT), aspartate aminotransferase (AST), alkaline phosphatase (ALP) and urea nitrogen (Urea) contents."}, "A549/DDP tumor model": {"test_system": "A549/DDP tumor model", "assay": "Anti-tumor effect, A549/DDP subcutaneous tumor model", "type": "in vivo, nude mice", "conditions": "platinum 1 mg/kg once every 5 days, 25 days"}, "HepG-2 cell line": {"test_system": "HepG-2 cell line", "assay": "MTT cytotoxicity on HepG-2 cell line", "type": "cell-based, human", "conditions": "24 hours", "experimental": "Placing the plate in a cell incubator for 12 hours at constant temperature. […] After 24 hours in the incubator, replace the culture medium, add 10 μL of MTT (3-(4,5-dimethylthiazol-2-yl)-2,5-diphenyltetrazolium bromide) PBS (phosphate-buffered saline) solution with a concentration of 5 mg/mL, discard the culture medium after 4 hours, add 200 μL of DMSO (dimethylsulfoxide), shake for 10 minutes, measure the absorbance value at 490 nm with a microplate reader."}, "A549 tumor model": {"test_system": "A549 tumor model", "assay": "Anti-tumor effect, A549 subcutaneous tumor model", "type": "in vivo"}}}
{"smiles": "N.N.[Cl][Pt][Cl]", "note": "[cisplatin]", "values": [{"measurement": "serum urea nitrogen content versus control group", "setting": "[1]", "value": "significantly different from that of the control group"}, {"measurement": "effect on tumor growth", "setting": "A549/DDP tumor model", "value": "a certain tumor-inhibiting effect"}, {"measurement": "IC50 for HepG-2 cell line", "setting": "HepG-2 cell line", "value": 12.6, "unit": "µg/mL"}, {"measurement": "effect on tumor growth", "setting": "A549 tumor model; A549 tumor model, platinum 1 mg/kg once every 5 days, 25 days", "value": "a certain tumor-inhibiting effect"}, {"measurement": "condition of the nude mice during the observation period", "setting": "A549 tumor model; mouse, in vivo", "value": "in poor condition and lost weight"}]}
